# Measured values as given in patent US10881729B2, “Vaccine adjuvant compositions” (CHILDREN'S MEDICAL CENTER CORPORATION, priority 2014, dated 2021).
# How the values were obtained:
# [1] = cited from earlier work
# [2] = tested on: newborn MoDCs; assay: TNF-α ELISA of supernatants of stimulated newborn MoDCs; assay type: cell-based, human; conditions: for TNF production in response to single TLR agonist, newborn compared to adult MoDCs: newborn vs adult MoDCs, FIG. 2
# Procedure: Isolated monocytes were seeded in 75 cm^2 tissue culture dishes for 5 days at 37° C. in a humidified incubator at 5% CO2 with 10^6 cells/ml medium. Medium consisted of RPMI 1640 medium with L-glutamine (GIBCO—LIFE TECHNOLOGIES, Carlsbad, Calif., USA) supplemented with 1% Penicillin-Streptomycin-Glutamine (PSG) (Invitrogen—Life Technologies, Carlsbad, Calif., USA) and 10% AP. This was supplemented with recombinant human (rh) IL-4 and rhGM-CSF (50 ng/ml and 100 ng/ml, respectively; R&D Systems, Minneapolis, Minn., USA). Additional fresh media and cytokines were provided on day 3 of incubation.
# After 5 days, immature MoDCs were harvested by gently pipetting only the loosely adherent fraction and re-plated (10^5 cells/well) in 96-well U-bottom plates in the presence or absence of TLRAs, and/or CLRAs, and/or sterile DPBS. This MoDC array was then incubated for 18-24 hours at 37° C. in a humidified incubator at 5% CO2. After this stimulation MoDCs were harvested and processed for further functional assays. (FIG. 2).
# Supernatants from MoDCs (GCI-DCs) stimulated for 18 hours in a humidified incubator (37° C., 5% CO2) with TLRAs, and/or CLRAs were analyzed for TNF-α production. For this, a human TNF enzyme-linked immunosorbent assay (ELISA) kit was used, and assay was performed according to manufacturer's instruction. (BD Biosciences, BD Biosciences, San Jose, Calif., USA). Results were read on a Versamax microplate reader with SoftMax Pro Version 5 (both from Molecular Devices, Sunnyville, Calif., USA).
# The inventors further evaluated the ability of these two combinations of agonists to activate newborn MoDCs by establishing concentration-response curves and by investigating whether the enhancement in TNF secretion can be observed with similar agonists that activate the same receptors. In addition, the concentration-response curves were used to mathematically assess whether the observed enhancement by combining agonists is equal to the sum of the effects observed with individual agonists (i.e., was additive) or if these agonists activate the newborn cells synergistically. A modification of the Loewe definition of additivity was applied to determine whether the agonists act synergistically (D<1), additively (D=1) or antagonistically (D>1), where D=[Ac]/[Ae]+[Bc]/[Be], and [Ac] and [Bc] are the concentrations of compound A and B used in the dual (combined) stimulation and [Ae] and [Be] are the concentrations of A and B that induce an equal amount of TNF secretion alone.
# [3] = tested on: newborn and adult MoDCs; assay: Gene expression by quantitative RT-PCR array, MPLA-stimulated newborn versus adult MoDCs; assay type: cell-based, human
# Procedure: Total ribonucleic acid (RNA) of newborn and adult MoDCs (GCI-DCs and TC-DCs) was isolated with the miRNeasy kit, according to manufacturer's instructions (QIAGEN®, Inc., Valencia, Calif., USA) Total RNA from both un-stimulated cells and cells stimulated with 1 μg/ml MPLA was isolated. RNA quality was analyzed for quality and quantity by using a NanoDrop 1000 spectrophotometer (Thermo Scientific, Wilmington, Del., USA). Complementary deoxyribonucleic acid (cDNA) was prepared from total RNA from each sample with a miScript II RT Kit, according to manufacturer's instructions (QIAGEN®, Inc., Valencia, Calif., USA). cDNA was quantified on a PAHS-052Z plate (QIAGEN®, Inc., Valencia, Calif., USA). Quantitative real time-polymerase chain reaction (RT-PCR) was run on a 7300 real time PCR system (APPLIED BIOSYSTEMS®—Life Technologies, Life Technologies, Carlsbad, Calif., USA).
compound,measurement,setting,value
"CCOCc1nc2c(N)nc3ccccc3c2[nH]1 [CL097, 2-(ethoxymethyl)-1 H-imidazo[4,5-c]quinolin-4-amine]",water solubility,[1],highly water-soluble
Pam3Cys,"TNF production in response to single TLR agonist, newborn compared to adult MoDCs",[2],less TNF
Polyinosinic:polycytidylic acid [Poly I:C],"TNF production in response to single TLR agonist, newborn compared to adult MoDCs",[2],less TNF
glycopyranosyl lipid A [GLA],synergy in TNF production with the partner agonist named in the sentence,"[2]; newborn MoDCs, VTX-294 for R848 (with TDB), GLA for MPLA (with Zymosan), BGP for Zymosan, Zymosan with MPLA or GLA",also present
monophosphoryl lipid A [MPLA],"TNF gene expression, adults compared to newborns","[3]; MPLA 1 μg/ml, 24 hours",2 fold
same,"IL-6 and IL-10, newborn MoDCs compared to adult MoDCs","[3]; MPLA treatment, FIG. 1",more
same,"expression levels of IRF7 and IRAK1, adult MoDCs compared to newborn","[3]; MPLA treatment, FIG. 1",higher
same,"IL6 and CXCL-8 (IL8) gene expression, newborn MoDCs compared to adult MoDCs",[3]; after treatment with MPLA,greater
same,"expression of IRF7, IRAK1 and NFKB1, adult MoDCs compared to newborn",[3]; after treatment with MPLA,greater
same,"TNF production in response to single TLR agonist, newborn compared to adult MoDCs",[2],less TNF
